# Key:
# [1] = system: uterine horns and endometriotic lesions; experiment: H&E histopathology of uterine horns and lesions from treated mice; assay type: in vivo, C57BL/6 mice
# Experimental: A randomly selected subset of the collected lesions and uterine horns were processed for staining with hematoxylin and eosin (H&E) (pathologically confirmed endometriotic lesions from PBS and HCQ-treated mice, n=15 each; uterine horns derived from PBS-treated mice, n=10; and uterine horns derived from HCQ-treated mice, n=10).
# Five-week-old C57BL/6 female mice were purchased from Jackson laboratories. All animals were maintained under standard 12 h photoperiod; food and water were available ad libitum throughout the study. All experimental procedures and animal care were approved by the Animal Care and Use Committee (IACUC) of the University of South Florida (R IS00000101), in accordance with the principles described in the Guide for the Care and Use of Laboratory Animals of the National Institutes of Health. All surgical procedures were performed under aseptic conditions using anesthesia. The mouse model of endometriosis was performed as previously described. […] Lesions were measured using a caliper. Volume of the lesions was calculated according to the formula: 4/3πr^2R.
# Collected samples were immediately preserved in 10% neutral buffered formalin at the animal facility. […] Lesions were analyzed from independent blocks. […]
# endometriotic lesions = experiment: Effect of hydroxychloroquine on lesion formation in mouse endometriosis model (Example 3); assay type: in vivo, C57BL/6 mice; details: 60 mg/kg intraperitoneal, lesions evaluated 14 days after start; P between groups 0.0019
# Experimental: To determine the effect of hydroxychloroquine on endometriosis in vivo, mice (6-8 week old C57BL/6 background mice) were fed on a mouse diet and given ad libitum access to water and kept on a light/dark cycle of 12/12 h under controlled conditions. Prior to any invasive procedure, the mice were anesthetized using Isofluorane (initial vaporizer flow rate of 3-5%) implemented once prior to an invasive procedure. The mice were also given Ketoprofen (10 mg/kg) subcutaneously as a post-operative analgesic agent for the first 24 hours and then as needed. All surgical procedures were performed under sterile conditions. Mice were ordered at 3-5 weeks of age to receive them and allow them to acclimate to the housing conditions prior to the start of the investigation when the mice are about 6 to about 8 weeks of age. […] The fragments were suspended in about 0.6 ml of phosphate buffered saline and were injected with an 18-gauge needle through the abdominal wall below the umbilicus into the peritoneal cavity of recipient mice with a ratio of one donor to two recipients (equivalent quantities). […] Lesions were identified, removed, and analyzed. […]
smiles,measurement,setting,value
"CCN(CCO)CCCC(C)Nc1ccnc2cc(Cl)ccc12 (stereo not drawn) [HCQ, hydroxychloroquine]",uterine horns with irregular epithelium pattern,"[1]; uterine horns from HCQ-treated mice, 60 mg/kg",5 out of 10
same,histology of ectopic growths (glandular components),"[1]; vs PBS, p=0.03 Fisher's exact test",did not histologically resemble endometriotic lesions
same,effect on endometriotic lesions (FIG. 5),endometriotic lesions,effectiveness
